Measurements taken from ChEMBL document CHEMBL1275440, “In vitro activity of telavancin against resistant gram-positive bacteria” (2008).
In brackets after ≈: the same amount, converted by molar mass. Activity calls are given as the source filed them. The rule behind the calls is not given here.

Experiments:
Staphylococcus aureus [1] = experiment: Antibacterial activity against methicillin resistant Staphylococcus aureus MED 2028 osteomyelitis isolate assessed as bacterial count at 4 ug/ml after 2 hrs by time-kill assay; format: functional
Staphylococcus aureus [2] = experiment: Antibacterial activity against methicillin resistant Staphylococcus aureus MED 2028 osteomyelitis isolate assessed as bacterial count at 1 ug/ml after 4 hrs by time-kill assay; format: functional
Staphylococcus aureus [3] = experiment: Antibacterial activity against methicillin resistant Staphylococcus aureus MED 2028 osteomyelitis isolate assessed as bacterial count at 1 ug/ml after 2 hrs by time-kill assay; format: functional
Streptococcus pyogenes [4] = experiment: Antibacterial activity against Streptococcus pyogenes MED 2040 by broth microdilution method; format: functional
Enterococcus faecalis [5] = experiment: Antibacterial activity against Enterococcus faecalis ATCC 51575 by broth microdilution method; format: functional
Enterococcus faecium = experiment: Antibacterial activity against vancomycin resistant Enterococcus faecium VanA clinical isolate by broth microdilution method; format: functional
[6] = test system: Streptococcus constellatus; experiment: Antibacterial activity against Streptococcus constellatus clinical isolate by broth microdilution method; format: functional
Staphylococcus capitis = experiment: Antibacterial activity against methicillin resistant coagulase-negative Staphylococcus capitis clinical isolate by broth microdilution method; format: functional
Streptococcus pyogenes [7] = experiment: Antibacterial activity against Streptococcus pyogenes MED 2040 assessed as bacterial count at 0.5 ug/ml after 4 hrs by time-kill assay; format: functional
Streptococcus pyogenes [8] = experiment: Antibacterial activity against Streptococcus pyogenes MED 2040 assessed as bacterial count at 0.5 ug/ml after 8 hrs by time-kill assay; format: functional
Streptococcus pyogenes [9] = experiment: Antibacterial activity against Streptococcus pyogenes MED 2040 assessed as bacterial count at 2 ug/ml after 4 hrs by time-kill assay; format: functional
Streptococcus pyogenes [10] = experiment: Antibacterial activity against Streptococcus pyogenes MED 2040 assessed as bacterial count at 2 ug/ml after 8 hrs by time-kill assay; format: functional
Streptococcus pyogenes [11] = experiment: Antibacterial activity against Streptococcus pyogenes MED 2040 assessed as bacterial count at 8 ug/ml after 8 hrs by time-kill assay; format: functional
Enterococcus faecalis [12] = experiment: Antibacterial activity against Enterococcus faecalis ATCC 51575 assessed as bacterial count at 2 ug/ml after 2 hrs by time-kill assay; format: functional
Enterococcus faecalis [13] = experiment: Antibacterial activity against Enterococcus faecalis ATCC 51575 assessed as bacterial count at 2 ug/ml after 8 hrs by time-kill assay; format: functional
Enterococcus faecalis [14] = experiment: Antibacterial activity against Enterococcus faecalis ATCC 51575 assessed as bacterial count at 4 ug/ml after 2 hrs by time-kill assay; format: functional
Enterococcus faecalis [15] = experiment: Antibacterial activity against Enterococcus faecalis ATCC 51575 assessed as bacterial count at 4 ug/ml after 8 hrs by time-kill assay; format: functional
Enterococcus faecalis [16] = experiment: Antibacterial activity against Enterococcus faecalis ATCC 51575 assessed as bacterial count at 8 ug/ml after 4 hrs by time-kill assay; format: functional
Enterococcus faecalis [17] = experiment: Antibacterial activity against Enterococcus faecalis ATCC 51575 assessed as bacterial count at 8 ug/ml after 24 hrs by time-kill assay; format: functional
Streptococcus pyogenes [18] = experiment: Antibacterial activity against Streptococcus pyogenes MED 2040 assessed as bacterial count at […] after 8 hrs by time-kill assay; format: functional
Streptococcus agalactiae [19] = experiment: Antibacterial activity against Streptococcus agalactiae MED 2038 assessed as bacterial count at 2 ug/ml after 8 hrs by time-kill assay; format: functional
Streptococcus agalactiae [20] = experiment: Antibacterial activity against Streptococcus agalactiae MED 2038 assessed as bacterial count at 2 ug/ml after 4 hrs by time-kill assay; format: functional
Streptococcus agalactiae [21] = experiment: Antibacterial activity against Streptococcus agalactiae MED 2038 assessed as bacterial count at 0.5 ug/ml after 4 hrs by time-kill assay; format: functional
Streptococcus agalactiae [22] = experiment: (§1) Antibacterial activity against Streptococcus agalactiae MED 2038 assessed as bacterial count at […] after 4 hrs by time-kill assay; format: functional
Streptococcus agalactiae [23] = experiment: (§2) Antibacterial activity against Streptococcus agalactiae MED 2038 assessed as bacterial count at […] after 2 hrs by time-kill assay; format: functional
Streptococcus agalactiae [24] = experiment: as §1; format: functional; remark: listed apart in the source
Streptococcus agalactiae [25] = experiment: as §2; format: functional; remark: listed apart in the source
Streptococcus pneumoniae [26] = experiment: Antibacterial activity against multidrug resistant Streptococcus pneumoniae MED 1090 assessed as bacterial count at 2 ug/ml after 8 hrs by time-kill assay; format: functional
Streptococcus pneumoniae [27] = experiment: Antibacterial activity against multidrug resistant Streptococcus pneumoniae MED 1090 assessed as bacterial count at […] after 24 hrs by time-kill assay; format: functional
Streptococcus pneumoniae [28] = experiment: Antibacterial activity against multidrug resistant Streptococcus pneumoniae MED 1090 assessed as bacterial count at […] after 2 hrs by time-kill assay; format: functional
Streptococcus pneumoniae [29] = experiment: Antibacterial activity against multidrug resistant Streptococcus pneumoniae MED 1090 assessed as bacterial count at 0.06 ug/ml after 24 hrs by time-kill assay; format: functional
Streptococcus pneumoniae [30] = experiment: Antibacterial activity against multidrug resistant Streptococcus pneumoniae MED 1090 assessed as bacterial count at 0.06 ug/ml after 8 hrs by time-kill assay; format: functional
Streptococcus pneumoniae [31] = experiment: Antibacterial activity against multidrug resistant Streptococcus pneumoniae MED 1090 assessed as bacterial count at 0.03 ug/ml after 2 hrs by time-kill assay; format: functional
[32] = test system: Staphylococcus epidermidis; experiment: Antibacterial activity against methicillin resistant Staphylococcus epidermidis ATCC 35984 assessed as bacterial count at 16 ug/ml after 4 hrs by time-kill assay; format: functional
[33] = test system: Staphylococcus epidermidis; experiment: Antibacterial activity against methicillin resistant Staphylococcus epidermidis ATCC 35984 assessed as bacterial count at 16 ug/ml after 2 hrs by time-kill assay; format: functional
[34] = test system: Staphylococcus epidermidis; experiment: Antibacterial activity against methicillin resistant Staphylococcus epidermidis ATCC 35984 assessed as bacterial count at 4 ug/ml after 2 hrs by time-kill assay; format: functional
[35] = test system: Staphylococcus epidermidis; experiment: Antibacterial activity against methicillin resistant Staphylococcus epidermidis ATCC 35984 assessed as bacterial count at 2 ug/ml after 4 hrs by time-kill assay; format: functional
Staphylococcus aureus [36] = experiment: Antibacterial activity against methicillin resistant Staphylococcus aureus MED 1805 bloodstream isolate assessed as bacterial count at 16 ug/ml after 24 hrs by time-kill assay; format: functional
Staphylococcus aureus [37] = experiment: Antibacterial activity against methicillin resistant Staphylococcus aureus MED 1805 bloodstream isolate assessed as bacterial count at 16 ug/ml after 4 hrs by time-kill assay; format: functional
Staphylococcus aureus [38] = experiment: Antibacterial activity against methicillin resistant Staphylococcus aureus MED 1805 bloodstream isolate assessed as bacterial count at 4 ug/ml after 24 hrs by time-kill assay; format: functional
Staphylococcus aureus [39] = experiment: Antibacterial activity against methicillin resistant Staphylococcus aureus MED 1805 bloodstream isolate assessed as bacterial count at 4 ug/ml after 2 hrs by time-kill assay; format: functional
Staphylococcus aureus [40] = experiment: Antibacterial activity against methicillin resistant Staphylococcus aureus MED 1805 bloodstream isolate assessed as bacterial count at 1 ug/ml after 2 hrs by time-kill assay; format: functional
Staphylococcus aureus [41] = experiment: Antibacterial activity against methicillin resistant Staphylococcus aureus MED 2028 osteomyelitis isolate assessed as bacterial count at 8 ug/ml after 24 hrs by time-kill assay; format: functional
Staphylococcus aureus [42] = experiment: Antibacterial activity against methicillin resistant Staphylococcus aureus MED 2028 osteomyelitis isolate assessed as bacterial count at 8 ug/ml after 8 hrs by time-kill assay; format: functional
Enterococcus faecalis [43] = test system: Enterococcus faecalis

SMILES: CCCCCCCCCCNCCN[C@@]1(C)C[C@H](O[C@H]2[C@H](Oc3c4cc5cc3Oc3ccc(cc3Cl)[C@@H](O)[C@@H](NC(=O)[C@@H](CC(C)C)NC)C(=O)N[C@@H](CC(N)=O)C(=O)N[C@H]5C(=O)N[C@H]3C(=O)N[C@H](C(=O)N[C@H](C(=O)O)c5cc(O)c(CNCP(=O)(O)O)c(O)c5-c5cc3ccc5O)[C@H](O)c3ccc(c(Cl)c3)O4)O[C@H](CO)[C@@H](O)[C@@H]2O)O[C@@H](C)[C@H]1O [TELAVANCIN]
- log10CFU/ml (Staphylococcus aureus [1]): 0.7
- log10CFU/ml (Staphylococcus aureus [2]): 1.3
- log10CFU/ml (Staphylococcus aureus [3]): 0.7
- MIC (Streptococcus pyogenes [4]): 0.06 mg/L (≈ 0.0342 µM)
- MIC (Enterococcus faecalis [5]): 1 mg/L (≈ 0.57 µM)
- MIC50 (Enterococcus faecium): 8 mg/L (≈ 4.56 µM)
- MIC90 (Enterococcus faecium): 16 mg/L (≈ 9.11 µM)
- MIC [6]: 0.015 mg/L (≈ 0.00854 µM)
- MIC50 [6]: inactive
- MIC90 [6]: inactive
- MIC50 (Staphylococcus capitis): 0.5 mg/L (≈ 0.285 µM)
- MIC90 (Staphylococcus capitis): 1 mg/L (≈ 0.57 µM)
- log10CFU/ml (Streptococcus pyogenes [7]): 1.6
- log10CFU/ml (Streptococcus pyogenes [8]): 2.3
- log10CFU/ml (Streptococcus pyogenes [9]): 2.7
- log10CFU/ml (Streptococcus pyogenes [10]): 3.1
- log10CFU/ml (Streptococcus pyogenes [11]): 2.7
- log10CFU/ml (Enterococcus faecalis [12]): 0.5
- log10CFU/ml (Enterococcus faecalis [13]): 0.6
- log10CFU/ml (Enterococcus faecalis [14]): 0.5
- log10CFU/ml (Enterococcus faecalis [15]): 0.7
- log10CFU/ml (Enterococcus faecalis [16]): 0.2
- log10CFU/ml (Enterococcus faecalis [17]): 1
- log10CFU/ml (Streptococcus pyogenes [18]): 0.5
- log10CFU/ml (Streptococcus agalactiae [19]): 1
- log10CFU/ml (Streptococcus agalactiae [20]): 0.8
- log10CFU/ml (Streptococcus agalactiae [21]): 1
- log10CFU/ml (Streptococcus agalactiae [22]): 0.9
- log10CFU/ml (Streptococcus agalactiae [23]): 1
- log10CFU/ml (Streptococcus agalactiae [24]): 0.8
- log10CFU/ml (Streptococcus agalactiae [25]): 1
- log10CFU/ml (Streptococcus pneumoniae [26]): 3.4
- log10CFU/ml (Streptococcus pneumoniae [27]): 3.4
- log10CFU/ml (Streptococcus pneumoniae [28]): 1.1
- log10CFU/ml (Streptococcus pneumoniae [29]): 3.4
- log10CFU/ml (Streptococcus pneumoniae [30]): 3.4
- log10CFU/ml (Streptococcus pneumoniae [31]): 1.1
- log10CFU/ml [32]: 3.2
- log10CFU/ml [33]: 0.5
- log10CFU/ml [34]: 1
- log10CFU/ml [35]: 0.03
- log10CFU/ml (Staphylococcus aureus [36]): 3.3
- log10CFU/ml (Staphylococcus aureus [37]): 1.6
- log10CFU/ml (Staphylococcus aureus [38]): 3.3
- log10CFU/ml (Staphylococcus aureus [39]): 1.2
- log10CFU/ml (Staphylococcus aureus [40]): 0.9
- log10CFU/ml (Staphylococcus aureus [41]): 3.4
- log10CFU/ml (Staphylococcus aureus [42]): 3.4
- MIC50 (Enterococcus faecalis [43]): inactive
- MIC90 (Enterococcus faecalis [43]): inactive
